Data as given in paper PMC9213561, “3-nitroimidazo[1,2-b]pyridazine as a novel scaffold for antiparasitics with sub-nanomolar anti-Giardia lamblia activity” (International Journal for Parasitology: Drugs and Drug …, 2022).
Where two headings read alike, the source gives them in different places.

Assays:
[1] = test system: G. lamblia trophozoites (WBC6); assay: Growth inhibition of G. lamblia trophozoites (WBC6), resazurin viability read-out; type: cell-based, Giardia lamblia; settings: for IC50: Giardia duodenalis; for fold higher anti-Giardia activity than metronidazole: versus metronidazole IC50 = 0.8 μM; for fold decrease of anti-Giardia activity: compared with 18
Method: (§1) G. lamblia trophozoites (WBC6) were seeded into 96-well-plates in 0.2 mL Keister-medium containing 10^3 trophozoites per well in the presence of the compounds dissolved in dimethyl sulfoxide (DMSO, final concentration 0.25%) or with DMSO as a solvent control and incubated for 72 h at 37 °C in an anaerobic chamber (80% N2, 10% H2, 10% CO2). Then, plates were centrifuged (2 min, 1000 rpm), medium was removed, and cells were washed once with PBS containing 1 g/L glucose. Then, PBS-glucose containing 10 mg/L resazurin was added, and plates were incubated for up to 5 h at 37 °C. Fluorescence reading (ex 530 nm/em 590 nm) was performed at various time points, and the linear increase of fluorescence was used as a marker for cell viability. IC50 values were calculated using the logit-log algorithm and are given as mean values with 95%-confidence intervals ([Müller et al., 2020]; [Müller and Hemphill, 2013]; [Müller and Müller, 2019]). The assays for growth inhibition of T. b. brucei, T. cruzi, L. infantum, P. falciparum and MRC-5 (human lung fibroblasts MRC-5SV40) were previously described ([Blaazer et al., 2014]). PDE activity was determined exactly as described ([de Heuvel et al., 2021]; [Kunz et al., 2005], [2017b]). All assays were carried out in triplicates and no more than 20% substrate was hydrolyzed in all reactions. Compounds were dissolved in DMSO and the final DMSO concentration was 1% in all reaction mixes. Control reactions with DMSO alone were always included. Data were analyzed using the GraphPad Prism software package (v7.0, GraphPad, San Diego).
Figure S67. Representative drug susceptibility curves of G. lamblia WBC6. Trophozoites were grown anaerobically in the presence of various concentrations of 17 (red), 29 (blue) and the reference compound metronidazole (MET, black). After 72 h, growth of cells was monitored by a cell viability assay based on the reduction of resazurin to a pink fluorescent product. Measured fluorescence units were normalized to the DMSO control. Data points and error bars represent mean and standard error of 4 replicates.

[2] = test system: MRC-5 (human lung fibroblasts MRC-5SV40); assay: Cytotoxicity on MRC-5 cells; type: cell-based; settings: MRC5, mean ± standard deviation, n ≥ 2, read-out: IC50 (nM) MRC-5
Method: as §1, with “[…]-medium” for “Keister-medium”, “([[…],” for “([Müller et al., 2020]; [Müller and Hemphill, 2013]; [Müller and Müller,”

GlPDE (aa588-1371) = GlPDE (aa588-1371) (Giardia lamblia, UniProt A0A644EZ75); assay: GlPDE activity inhibition; type: biochemical; settings: for Ki: mean ± standard deviation, n ≥ 2
Method: as §1
Figure S69. Representative dose-response curve of 11 against GlPDE (aa588-1371) enzyme (substrate concentration: 1 μM).

hPDE4B = hPDE4B (Homo sapiens, UniProt Q07343); assay: Human PDE4 activity inhibition; type: biochemical; settings: for Ki: mean ± standard deviation, n ≥ 2
Method: as §1

[3] = test system: Trypanosoma brucei brucei; assay: Growth inhibition of T. b. brucei; type: cell-based; settings: mean ± standard deviation, n ≥ 2
Method: as §1

Trypanosoma cruzi = assay: Growth inhibition of T. cruzi; type: cell-based; settings: mean ± standard deviation, n ≥ 2
Method: as §1

Leishmania infantum = assay: Growth inhibition of L. infantum; type: cell-based; settings: mean ± standard deviation, n ≥ 2
Method: as §1

Plasmodium falciparum = assay: Growth inhibition of P. falciparum; type: cell-based; settings: mean ± standard deviation, n ≥ 2, read-out: IC50 (µM) P.f.
Method: as §1, with “[…]-medium” for “Keister-medium”, “([[…],” for “([Müller et al., 2020]; [Müller and Hemphill, 2013]; [Müller and Müller,”

GlPDE = test system: GlPDE; design: method as in Blaazer et al., 2018; Kunz et al., 2017b; settings: Fig. 2; ref Blaazer et al., 2018; Kunz et al., 2017b; cited from earlier work
G. lamblia = test system: G. lamblia; design: method as in Blaazer et al., 2018; Kunz et al., 2017b; settings: Fig. 2; ref Blaazer et al., 2018; Kunz et al., 2017b; cited from earlier work
TbrPDEB1 = test system: TbrPDEB1; design: method as in Blaazer et al., 2018; Kunz et al., 2017b; settings: Fig. 2; ref Blaazer et al., 2018; Kunz et al., 2017b; cited from earlier work
T.b. brucei = test system: T.b. brucei; design: method as in Blaazer et al., 2018; Kunz et al., 2017b; settings: Fig. 2; ref Blaazer et al., 2018; Kunz et al., 2017b; cited from earlier work
[4] = WBC6 trophozoites, 72 h, anaerobic, mean ± standard error (95% CI, logit-log), quadruplicates, read-out: IC50 (nM) G.l.

Sequence of hPDE4B (Q07343 330-659 limits assumed): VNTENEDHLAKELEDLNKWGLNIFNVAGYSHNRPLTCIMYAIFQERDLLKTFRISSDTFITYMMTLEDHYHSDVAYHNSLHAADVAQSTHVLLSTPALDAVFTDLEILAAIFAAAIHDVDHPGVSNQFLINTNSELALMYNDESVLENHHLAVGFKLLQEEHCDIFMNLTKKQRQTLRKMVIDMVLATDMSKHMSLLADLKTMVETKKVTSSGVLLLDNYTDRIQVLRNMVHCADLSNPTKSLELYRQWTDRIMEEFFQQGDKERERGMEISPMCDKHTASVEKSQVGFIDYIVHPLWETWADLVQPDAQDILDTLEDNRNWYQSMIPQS

Structure (SMILES): COc1ccc(C2=NN(C3CCN(c4ccc5ncc([N+](=O)[O-])n5n4)CC3)C(=O)[C@@H]3CC=CC[C@H]23)cc1OC [Compound 11, (4aS,8aR)-4-(3,4-Dimethoxyphenyl)-2-(1-(3-nitroimidazo[1,2-b]pyridazin-6-yl)piperidin-4-yl)-4a,5,8,8a-tetrahydrophthalazin-1(2H)-one]
- IC50 [1, 4]: 0.5 ± 0.2 nM
- fold higher anti-Giardia activity than metronidazole [1]: > 1,000 fold
- IC50 [2]: > 64000 nM
- Ki (GlPDE (aa588-1371)): 0.5 ± 0.3 µM
- fold more active against human PDE4 than against GlPDE (hPDE4B; Ki hPDE4 versus Ki GlPDE): 3,000 fold
- Ki (hPDE4B): 0.00016 ± 2e-05 µM
- IC50 [3]: 1 ± 0.7 µM
- IC50 (Trypanosoma cruzi): 5.9 ± 4.5 µM
- IC50 (Leishmania infantum): 27.4 ± 25.3 µM
- IC50 (Plasmodium falciparum): 6.3 ± 0.4 µM

Structure (SMILES): COc1ccc(C2=NN(C3CCN(c4ccc5ncc([N+](=O)[O-])n5n4)CC3)C(=O)CC2)cc1OC [Compound 18, 6-(3,4-Dimethoxyphenyl)-2-(1-(3-nitroimidazo[1,2-b]pyridazin-6-yl)piperidin-4-yl)-4,5-dihydropyridazin-3(2H)-one]
- IC50 [1, 4]: 0.2 ± 0.1 nM
- IC50 ([1]; text value in pM, read-out: anti-Giardia IC50 on growth inhibition): ~0.2 nM
- fold increase in anti-Giardia potency ([1]; compared with 11 (cyclohexene ring removed)): 2.5 fold
- IC50 [2]: > 64000 nM
- GlPDE Ki over IC50 for Giardia growth inhibition (GlPDE (aa588-1371)): over 50,000 fold
- Ki (GlPDE (aa588-1371)): > 10 µM
- fold decrease of hPDE4 affinity (hPDE4B; compared with 11): 20 fold
- Ki (hPDE4B): 0.0032 ± 0.0004 µM
- IC50 [3]: > 64 µM
- IC50 (Trypanosoma cruzi): 50.9 ± 4.7 µM
- IC50 (Leishmania infantum): 26.4 ± 8.6 µM
- IC50 (Plasmodium falciparum): 33.8 ± 37 µM

Structure (SMILES): COc1ccc(C2=NN(C3CCN(c4ccc5ncc([N+](=O)[O-])n5n4)CC3)C(=O)CC2)cc1Cl [Compound 19, 6-(3-Chloro-4-methoxyphenyl)-2-(1-(3-nitroimidazo[1,2-b]pyridazin-6-yl)piperidin-4-yl)-4,5-dihydropyridazin-3(2H)-one]
- IC50 [1, 4]: 19 ± 3.2 nM
- fold decrease of anti-Giardia activity [1]: 100 fold
- fold higher anti-Giardia activity than metronidazole [1]: 40 fold
- IC50 [2]: > 64000 nM
- Ki (GlPDE (aa588-1371)): > 1000 µM
- fold decrease of affinity for hPDE4B (hPDE4B; compared to 18): 60 fold
- Ki (hPDE4B): 0.2 ± 0.05 µM
- IC50 [3]: 22.2 ± 15.9 µM
- IC50 (Trypanosoma cruzi): 5.4 ± 4.1 µM
- IC50 (Leishmania infantum): 28.9 ± 31 µM
- IC50 (Plasmodium falciparum): 7.2 ± 0.4 µM

Structure (SMILES): COc1ccc(C2=NN(C3CCN(S(=O)(=O)c4cccc5cccnc45)CC3)C(=O)[C@@H]3CC=CC[C@H]23)cc1OC [Compound 10]
- IC50 (GlPDE): 3 µM
- IC50 (G. lamblia): 1.5 µM
- IC50 (TbrPDEB1): 0.03 µM
- IC50 (T.b. brucei): 0.42 µM

Structure (SMILES): COc1cccc(COc2cc(C3=NN(C4CCN(c5ccc6ncc([N+](=O)[O-])n6n5)CC4)C(=O)[C@H]4CC=CC[C@@H]34)ccc2OC)c1 (relative stereo) [Compound 14, cis-4-(4-Methoxy-3-((3-methoxybenzyl)oxy)phenyl)-2-(1-(3-nitroimidazo[1,2-b]pyridazin-6-yl)piperidin-4-yl)-4a,5,8,8a-tetrahydrophthalazin-1(2H)-one]
- IC50 [1, 4]: 1 ± 0.5 nM
- IC50 [2]: > 64000 nM
- IC50 [3]: > 64 µM
- IC50 (Trypanosoma cruzi): 31.8 ± 12.1 µM
- IC50 (Leishmania infantum): 32.5 µM
- IC50 (Plasmodium falciparum): 0.7 ± 0.5 µM

Structure (SMILES): COc1ccc(C2=NN(C3CCN(c4ccc5nccn5n4)CC3)C(=O)CC2)cc1OC [Compound 20, 6-(3,4-Dimethoxyphenyl)-2-(1-(imidazo[1,2-b]pyridazin-6-yl)piperidin-4-yl)-4,5-dihydropyridazin-3(2H)-one]
- IC50 [1, 4]: 930 ± 100 nM
- fold decrease of anti-Giardia activity [1]: 4,500 fold
- IC50 [2]: > 64000 nM
- GlPDE inhibition (in words) (GlPDE (aa588-1371)): no GlPDE inhibition
- Ki (GlPDE (aa588-1371)): > 1000 µM
- Ki (hPDE4B): 0.005 ± 0.001 µM
- IC50 [3]: > 64 µM
- IC50 (Trypanosoma cruzi): > 64 µM
- IC50 (Leishmania infantum): > 64 µM
- IC50 (Plasmodium falciparum): > 64 µM

Structure (SMILES): O=[N+]([O-])c1cnc2ccc(N3CCCCC3)nn12 [Compound 23, 3-Nitro-6-(piperidin-1-yl)imidazo[1,2-b]pyridazine]
- IC50 [1, 4]: 3.6 ± 0.8 nM
- IC50 [2]: 28100 nM
- IC50 [3]: > 64 µM
- IC50 (Trypanosoma cruzi): 32.3 ± 1.1 µM
- IC50 (Leishmania infantum): > 64 µM
- IC50 (Plasmodium falciparum): > 64 µM

Structure (SMILES): COc1ccc(C2=NN(C3CCCCCC3)C(=O)[C@H]3CC=CC[C@@H]23)cc1OCCCCOc1ccc(-c2nn[nH]n2)cc1 [Compound 9]
- IC50 (GlPDE): 0.8 µM
- IC50 (G. lamblia): 6.9 µM
- IC50 (T.b. brucei): 0.08 µM
